# Reference: US20220340566A1, “BENZYL AMINE-CONTAINING 5,6-HETEROAROMATIC COMPOUNDS USEFUL AGAINST MYCOBACTERIAL INFECTION” (priority 2019, published 2022)
# Read-outs that look alike come from different tables or passages of the source.
# Columns and labels:
# [1] = Metabolic stability test in pooled human liver microsomes; assay type: in vitro ADME; settings: human liver microsomes 0.5 mg protein/mL, 1 mmol/L NADPH, 37° C., 30 minutes
# Outline: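 Remaining-rate readout: parent compound left after 30 min versus 0 min (set as 100%), measured by LC/MS/MS or SPE/MS. Oxidative reaction ran at 37° C. with 1 mmol/L NADPH, 0.5 mg protein/mL pooled human microsomes, 50 mmol/L Tris-HCl pH 7.4 buffer.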
# [2] = test system: Mycobacterium avium ATCC700898; experiment: Determination of IC85 against M. avium (resazurin fluorescence); assay type: cell-based; settings: Mycobacterium avium
# [3] = ATCC700898, M. avium ATCC700898, CAMHB medium, 37° C., 3 days incubation then resazurin, fluorescence one day later, read-out: IC85
Structure (SMILES),"MS_h_% (remaining amount of compound after reaction, 0 minute = 100%) [1] [%]","IC85 [2, 3] [nM]",IC85 ([2]; ATCC700898) [nM]
Cc1cn2c(C(=O)NCc3ccc(N4CC5(CCN(c6ccc(C(F)(F)F)cc6)CC5)C4)c(F)c3)c(C)nc2s1 [Compound I-3-43],64.1,150,
Cc1ccc2nc(C)c(C(=O)NCc3ccc(S(F)(F)(F)(F)F)cc3)n2c1 [Compound I-3-44],63.9,110,
CCc1nc2ccc(Cl)cn2c1C(=O)NCc1ccc(-n2cc3c(n2)CN(c2ccc(OC(F)(F)F)cc2)C3)c(F)c1.Cc1ccc(S(=O)(=O)O)cc1 [Compound I-3-45],63.2,,4.6
Cc1cn2c(C(=O)NCc3ccc(Oc4cccc(C(F)(F)F)c4)cc3)c(C)nc2s1 [Compound I-3-46],63.1,610,
CCc1nc2ccc(Cl)cn2c1C(=O)NCc1ccc(-n2cc3c(n2)CN(c2ccc(OC(F)(F)F)cc2)C3)c(F)c1.Cl [Compound I-3-47],62,5.1,
Cc1nc2cnccn2c1C(=O)NCc1ccc(N2CCN(c3ccc(OC(F)(F)F)cc3)CC2)c(F)c1 [Compound I-3-48],60.4,660,
Cc1ccn2c(C(=O)NCc3ccc(O[C@H]4CCN(c5ccc(OC(F)(F)F)cc5)C4)c(F)c3)c(C)nc2c1 [Compound I-3-49],60.2,500,
COc1ccn2nc(C)c(C(=O)NCc3ccc(N4CCN(c5ccc(OC(F)(F)F)cc5)[C@@H](C)C4)cc3)c2c1 [Compound I-3-50],58.5,5.8,
